Consider 19 compounds from patent publication US20240101544A1, “INHIBITORS OF QPCTL AND QPCT” (priority 2022, published 2024).

The target in test [1] is T1, QPCTL (Homo sapiens (Human), UniProt Q9NXS2). The experiment in a line: Inhibition of Cellular QPCTL Activity - FACS flow cytometry, CC2C6 anti-CD47 staining of Ramos cells. The format is cell-based. To be noted: Ramos human Burkitts Lymphoma cells, 72-96 hours, % CC2C6-positive cells. On the procedure: Inhibition of Cellular QPCTL Activity—Fluorescence-Activated Cell Sorting (FACS) Flow Cytometry
The cells were incubated for 72-96 hours at 37° C. and 5% CO2. At the end of incubation period, cells were transferred to tubes and spun down at 1200 rpm for 5 minutes. […] After antibody staining, the cells were washed with FACS buffer then stained with SYTOX™ Blue dead cell stain at a dilution of 1:1000. Cells were analyzed on a BD FACS Melody and a positive staining gate on live cells was set using the 0.1% DMSO controls. […] Flow cytometry data were analyzed by FlowJo software and concentration-response-curves and IC50 values were generated using Collaborative Drug Discovery software.
Target sequence in this assay (Q9NXS2 whole entry): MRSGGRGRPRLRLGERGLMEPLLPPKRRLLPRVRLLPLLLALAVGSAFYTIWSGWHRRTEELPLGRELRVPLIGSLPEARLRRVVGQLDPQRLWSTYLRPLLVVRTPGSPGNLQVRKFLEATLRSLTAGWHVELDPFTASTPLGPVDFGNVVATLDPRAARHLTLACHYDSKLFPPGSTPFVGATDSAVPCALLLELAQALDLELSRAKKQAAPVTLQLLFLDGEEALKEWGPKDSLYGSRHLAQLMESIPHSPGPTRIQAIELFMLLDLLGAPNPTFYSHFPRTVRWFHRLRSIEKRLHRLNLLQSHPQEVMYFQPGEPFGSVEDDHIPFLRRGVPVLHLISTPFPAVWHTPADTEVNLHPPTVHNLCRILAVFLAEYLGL
(In general: A flow cytometer gives signals particle by particle.)

The target of test [2] is T1, QPCTL. Briefly: QPCTL Enzymatic Activity Assay (coupled-enzyme fluorescent assay, H-Gln-AMC substrate). The format is biochemical. The note with it: recombinant truncated human QPCTL 10-12 nM, 10 μM H-Gln-AMC; read-out: QPCTL Inhibition IC50.
Target sequence in this assay (Q9NXS2 53-382): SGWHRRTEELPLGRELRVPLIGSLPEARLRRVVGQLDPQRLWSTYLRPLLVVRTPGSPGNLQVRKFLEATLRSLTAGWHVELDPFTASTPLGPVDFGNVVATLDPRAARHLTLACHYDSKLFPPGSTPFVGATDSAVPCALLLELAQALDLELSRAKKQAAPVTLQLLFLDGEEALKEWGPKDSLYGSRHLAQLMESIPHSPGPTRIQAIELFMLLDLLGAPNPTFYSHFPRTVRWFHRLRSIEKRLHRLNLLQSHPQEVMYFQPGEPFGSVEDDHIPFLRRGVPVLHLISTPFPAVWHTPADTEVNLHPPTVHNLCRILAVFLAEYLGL
The next test has as its target QPCT (rhQPCT) (Homo sapiens (Human), UniProt Q16769). The experiment in a line: QPCT Enzymatic Activity Assay (coupled-enzyme fluorescent assay, H-Gln-AMC substrate). The format is biochemical. The note with it: rhQPCT 10-12 nM, 10 μM H-Gln-AMC; read-out: QPCT Inhibition IC50. An outline of the steps: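 Coupled assay: recombinant human QPCT converts H-Gln-AMC (10 μM final) to pyroglutamyl-AMC, 60 min at 37 °C, stopped by boiling; PGPEP-1 then releases AMC.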

For test [3], the target named is T1, QPCTL. Briefly: Inhibition of Cellular QPCTL Activity - Imaging Assay, CC2C6 anti-CD47 staining of DLD-1 cells. The format is cell-based. To be noted: 72 hours, CC2C6 anti-CD47 high-content imaging. Here is the method: Inhibition of Cellular QPCTL Activity—Imaging Assay
The cells were incubated for 72 hours at 37° C. and 5% CO2. […] After primary antibody staining, the cells were fixed with 4% paraformaldehyde in the incubation buffer for 15 minutes at room temperature. […] Cells were analyzed on a ImageXpress Pico Automated Cell Imaging System (Molecular Devices) using 10× objective (3×3 fields).
Target sequence in this assay (Q9NXS2 whole entry): as the sequence (Q9NXS2 whole entry) above

One may read the IC50 as the concentration that gives 50% inhibition.

Molecules are shown by their SMILES. Where only a bound is given, the exact number is not on record here.

Sequence of QPCT (rhQPCT) (Q16769 29-361): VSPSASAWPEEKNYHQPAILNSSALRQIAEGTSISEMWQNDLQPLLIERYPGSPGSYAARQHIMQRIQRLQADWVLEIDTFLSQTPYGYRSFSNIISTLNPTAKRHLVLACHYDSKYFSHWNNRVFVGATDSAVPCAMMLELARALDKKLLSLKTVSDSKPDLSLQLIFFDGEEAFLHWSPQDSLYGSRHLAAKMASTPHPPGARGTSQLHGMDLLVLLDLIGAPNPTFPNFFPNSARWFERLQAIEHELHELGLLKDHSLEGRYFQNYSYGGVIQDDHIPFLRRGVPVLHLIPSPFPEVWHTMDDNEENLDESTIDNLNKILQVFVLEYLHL

For the compound `Cn1cnnc1C1CCN(c2c(-c3ccnnc3)ccc(Cl)c2C#N)CC1` [Example 33, 6-chloro-2-[4-(4-methyl-4H-1,2,4-triazol-3-yl)piperidin-1-yl]-3-(pyridazin-4-yl)benzonitrile], the IC50 on QPCTL [1], at QPCTL [2] and at QPCT (rhQPCT) was below 100 nM throughout.

Consider `Cn1cc(-c2ccc(-c3ccnnc3)c(N3CCC(c4nncn4C)CC3)c2C#N)cn1` [Example 36, 6-(1-methyl-1H-pyrazol-4-yl)-2-[4-(4-methyl-4H-1,2,4-triazol-3-yl)piperidin-1-yl]-3-(pyridazin-4-yl)benzonitrile], for which the IC50 on QPCTL [1], on QPCTL [2] and at QPCT (rhQPCT) was below 100 nM each time.

Turning to `Cn1cnnc1C1CCN(c2c(-c3ccc(F)nc3)ccc(-c3ccccc3)c2C#N)CC1` [Example 28, 4-(6-fluoropyridin-3-yl)-3-[4-(4-methyl-4H-1,2,4-triazol-3-yl)piperidin-1-yl]-[1,1′-biphenyl]-2-carbonitrile], the IC50 at QPCTL [1], on QPCTL [2] and at QPCT (rhQPCT) was below 100 nM throughout.

As to `Cn1cnnc1C1CCN(c2c(-c3ccc(F)nc3)ccc(Cl)c2C#N)CC1` [Example 30, 6-chloro-3-(6-fluoropyridin-3-yl)-2-[4-(4-methyl-4H-1,2,4-triazol-3-yl)piperidin-1-yl]benzonitrile], the concentration for half-maximal inhibition (IC50) at QPCTL [1], at QPCTL [2] and at QPCT (rhQPCT) was below 100 nM throughout.

Take `Cn1cnnc1C1CCN(c2c(C#N)cc(C(F)(F)F)cc2-c2ccc(F)nc2)CC1` [Example 70, 3-(6-fluoropyridin-3-yl)-2-(4-(4-methyl-4H-1,2,4-triazol-3-yl)piperidin-1-yl)-5-(trifluoromethyl)benzonitrile]: the half-maximal inhibitory concentration (IC50) at QPCTL [2], on QPCT (rhQPCT) and against QPCTL [3] was below 100 nM each time.

Turning to `Cn1ccc(-c2ccc(-c3ccc(O)c(C=O)c3)c(N3CCC(c4nncn4C)CC3)c2C#N)n1` [Example 124, 3′-formyl-4′-hydroxy-4-(1-methyl-1H-pyrazol-3-yl)-2-(4-(4-methyl-4H-1,2,4-triazol-3-yl)piperidin-1-yl)-[1,1′-biphenyl]-3-carbonitrile], the half-maximal inhibitory concentration (IC50) at QPCTL [2] is below 100 nM; on QPCT (rhQPCT), below 100 nM; against QPCTL [3], 100 to 1000 nM.

On to `Cn1cnnc1C1CCN(c2c(-c3ccc(F)nc3)ccc(-c3cn[nH]c3)c2C#N)CC1` [Example 73, 3-(6-fluoropyridin-3-yl)-2-(4-(4-methyl-4H-1,2,4-triazol-3-yl)piperidin-1-yl)-6-(1H-pyrazol-4-yl)benzonitrile], for which the IC50 at QPCTL [2], at QPCT (rhQPCT) and against QPCTL [3] was below 100 nM each time.

For `Cn1cnnc1C1CCN(c2c(-c3ccc(F)nc3)ccc(-c3ccn(C4CC4)n3)c2C#N)CC1` [Example 98, 6-(1-cyclopropyl-1H-pyrazol-3-yl)-3-(6-fluoropyridin-3-yl)-2-(4-(4-methyl-4H-1,2,4-triazol-3-yl)piperidin-1-yl)benzonitrile], the 50% inhibitory concentration (IC50) at QPCTL [2], at QPCT (rhQPCT) and at QPCTL [3] was below 100 nM in each case.

Take `CN(C)C(=O)c1ccc(-c2ccc(F)nc2)c(N2CCC(c3nncn3C)CC2)c1C#N` [Example 79, 2-cyano-4-(6-fluoropyridin-3-yl)-N,N-dimethyl-3-(4-(4-methyl-4H-1,2,4-triazol-3-yl)piperidin-1-yl)benzamide]: the half-maximal inhibitory concentration (IC50) was below 100 nM on QPCTL [2], below 100 nM at QPCT (rhQPCT) and 100 to 1000 nM at QPCTL [3].

As for `Cc1cc(-c2ccc(-c3cnn(C)c3)c(C#N)c2N2CCC(c3nncn3C)CC2)cnn1` [Example 48, 6-(1-methyl-1H-pyrazol-4-yl)-2-(4-(4-methyl-4H-1,2,4-triazol-3-yl)piperidin-1-yl)-3-(6-methylpyridazin-4-yl)benzonitrile], the concentration for half-maximal inhibition (IC50) on QPCTL [2], at QPCT (rhQPCT) and at QPCTL [3] was below 100 nM in each case.

`Cn1cnnc1C1CCN(c2c(-c3ccc(F)nc3)ccc(-c3cc[nH]n3)c2C#N)CC1` [Example 45, 3-(6-fluoropyridin-3-yl)-2-(4-(4-methyl-4H-1,2,4-triazol-3-yl)piperidin-1-yl)-6-(1H-pyrazol-3-yl)benzonitrile]: the IC50 on QPCTL [2], at QPCT (rhQPCT) and at QPCTL [3] was below 100 nM in each case.

`Cn1cnnc1C1CCN(c2c(-c3ccc(F)nc3)ccc(F)c2C#N)CC1` [Example 71, 6-fluoro-3-(6-fluoropyridin-3-yl)-2-(4-(4-methyl-4H-1,2,4-triazol-3-yl)piperidin-1-yl)benzonitrile]: the IC50 on QPCTL [2], on QPCT (rhQPCT) and at QPCTL [3] was below 100 nM each time.

Consider `Cn1cnnc1C1CCN(c2c(C#N)ccnc2-c2ccc(F)nc2)CC1` [Example 133, 6′-fluoro-3-(4-(4-methyl-4H-1,2,4-triazol-3-yl)piperidin-1-yl)-[2,3′-bipyridine]-4-carbonitrile], for which the 50% inhibitory concentration (IC50) on QPCTL [2], at QPCT (rhQPCT) and against QPCTL [3] was below 100 nM each time.

`Cn1cnnc1C1CCN(c2c(-c3ccc(F)nc3)ccnc2C#N)CC1` [Example 132, 6-fluoro-3′-(4-(4-methyl-4H-1,2,4-triazol-3-yl)piperidin-1-yl)-[3,4′-bipyridine]-2′-carbonitrile]: the IC50 on QPCTL [2], at QPCT (rhQPCT) and against QPCTL [3] was below 100 nM throughout.

Take `Cn1cnnc1C1CCN(c2c(-c3ccc(F)nc3)ccc(NS(C)(=O)=O)c2C#N)CC1` [Example 84, N-(2-cyano-4-(6-fluoropyridin-3-yl)-3-(4-(4-methyl-4H-1,2,4-triazol-3-yl)piperidin-1-yl)phenyl)methanesulfonamide]: the half-inhibitory concentration (IC50) was below 100 nM on QPCTL [2], below 100 nM at QPCT (rhQPCT) and above 10000 nM against QPCTL [3].

Take `CNCCOc1ccc(-c2ccc(F)nc2)c(N2CCC(c3nncn3C)CC2)c1C#N` [Example 82, 3-(6-fluoropyridin-3-yl)-2-(4-(4-methyl-4H-1,2,4-triazol-3-yl)piperidin-1-yl)-6-(2-(methylamino)ethoxy)benzonitrile]: the IC50 on QPCTL [2] was below 100 nM; at QPCT (rhQPCT) it was below 100 nM; at QPCTL [3] it was 1000 to 10000 nM.

In the case of `Cn1cnnc1C1CCN(c2c(-c3ccc(F)nc3)ccc(-c3ccnc(N)c3)c2C#N)CC1` [Example 44, 6-(2-aminopyridin-4-yl)-3-(6-fluoropyridin-3-yl)-2-(4-(4-methyl-4H-1,2,4-triazol-3-yl)piperidin-1-yl)benzonitrile], the half-maximal inhibitory concentration (IC50) at QPCTL [2], at QPCT (rhQPCT) and on QPCTL [3] was below 100 nM each time.

For `Cn1cnnc1C1CCN(c2c(C#N)cc(C#N)cc2-c2ccc(F)nc2)CC1` [Example 100, 5-(6-fluoropyridin-3-yl)-4-(4-(4-methyl-4H-1,2,4-triazol-3-yl)piperidin-1-yl)isophthalonitrile], the IC50 at QPCTL [2], on QPCT (rhQPCT) and on QPCTL [3] was below 100 nM throughout.

With `CN(C)CCNc1ccc(-c2ccc(F)nc2)c(N2CCC(c3nncn3C)CC2)c1C#N` [Example 51, 6-((2-(dimethylamino)ethyl)amino)-3-(6-fluoropyridin-3-yl)-2-(4-(4-methyl-4H-1,2,4-triazol-3-yl)piperidin-1-yl)benzonitrile], the 50% inhibitory concentration (IC50) on QPCTL [2] is below 100 nM; on QPCT (rhQPCT), below 100 nM; at QPCTL [3] it was 100 to 1000 nM.
